The values below are quoted from earlier work in patent publication US5855881A, “Mammalian alcohol dehydrogenase and aldehyde dehydrogenase production in plants” (priority 1996, dated 1999).

The structures appear in SMILES notation.

In data set [1] the target is T1, human cytosolic ALDH1 (aldehyde dehydrogenase) (Homo sapiens, UniProt P00352).
T1 construct: at least five ALDHs that have been purified and characterized from human liver or stomach; host or cells: purified from human liver or stomach (Yin et al. 1993)
T1 sequence (P00352 1-501): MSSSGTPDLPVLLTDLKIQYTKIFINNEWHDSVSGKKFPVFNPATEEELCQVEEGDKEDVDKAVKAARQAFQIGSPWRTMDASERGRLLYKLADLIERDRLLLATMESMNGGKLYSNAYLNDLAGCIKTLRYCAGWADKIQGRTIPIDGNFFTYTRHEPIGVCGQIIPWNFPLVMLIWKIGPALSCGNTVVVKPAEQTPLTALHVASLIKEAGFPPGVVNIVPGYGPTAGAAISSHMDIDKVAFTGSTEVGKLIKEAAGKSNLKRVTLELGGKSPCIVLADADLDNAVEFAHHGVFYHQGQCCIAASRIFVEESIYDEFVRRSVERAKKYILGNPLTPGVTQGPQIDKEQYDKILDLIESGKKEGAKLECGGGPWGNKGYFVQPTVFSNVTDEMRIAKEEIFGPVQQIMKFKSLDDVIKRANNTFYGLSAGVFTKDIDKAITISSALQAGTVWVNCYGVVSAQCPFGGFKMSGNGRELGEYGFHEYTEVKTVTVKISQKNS
Conditions: read-out: Km toward acetaldehyde.

In data set [2] the target is T2, human mitochondrial ALDH2 (aldehyde dehydrogenase) (Homo sapiens, UniProt P05091).
T2 construct: at least five ALDHs that have been purified and characterized from human liver or stomach; host or cells: purified from human liver or stomach (Yin et al. 1993)
T2 sequence (P05091 18-517): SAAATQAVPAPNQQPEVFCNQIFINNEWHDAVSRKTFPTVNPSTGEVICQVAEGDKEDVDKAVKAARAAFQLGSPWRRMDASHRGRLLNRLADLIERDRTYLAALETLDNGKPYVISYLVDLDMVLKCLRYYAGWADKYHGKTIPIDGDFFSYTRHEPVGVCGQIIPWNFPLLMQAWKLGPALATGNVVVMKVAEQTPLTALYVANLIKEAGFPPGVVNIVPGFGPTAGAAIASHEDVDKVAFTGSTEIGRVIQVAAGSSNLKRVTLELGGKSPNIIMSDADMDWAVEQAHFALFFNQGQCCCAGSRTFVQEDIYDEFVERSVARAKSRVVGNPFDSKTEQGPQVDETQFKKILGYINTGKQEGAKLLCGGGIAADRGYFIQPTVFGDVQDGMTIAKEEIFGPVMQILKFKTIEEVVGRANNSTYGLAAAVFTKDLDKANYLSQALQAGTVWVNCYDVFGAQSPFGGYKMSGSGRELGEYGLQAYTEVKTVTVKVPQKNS
Conditions: read-out: Km toward acetaldehyde.

The target in data set [3] is T3, human γ-aminobutyraldehyde dehydrogenase (GABALDH) (Homo sapiens, UniProt P49189).
T3 construct: γ-aminobutyraldehyde dehydrogenase has been purified from liver; host or cells: purified from human liver (Yin et al. 1993)
T3 sequence (P49189 whole entry): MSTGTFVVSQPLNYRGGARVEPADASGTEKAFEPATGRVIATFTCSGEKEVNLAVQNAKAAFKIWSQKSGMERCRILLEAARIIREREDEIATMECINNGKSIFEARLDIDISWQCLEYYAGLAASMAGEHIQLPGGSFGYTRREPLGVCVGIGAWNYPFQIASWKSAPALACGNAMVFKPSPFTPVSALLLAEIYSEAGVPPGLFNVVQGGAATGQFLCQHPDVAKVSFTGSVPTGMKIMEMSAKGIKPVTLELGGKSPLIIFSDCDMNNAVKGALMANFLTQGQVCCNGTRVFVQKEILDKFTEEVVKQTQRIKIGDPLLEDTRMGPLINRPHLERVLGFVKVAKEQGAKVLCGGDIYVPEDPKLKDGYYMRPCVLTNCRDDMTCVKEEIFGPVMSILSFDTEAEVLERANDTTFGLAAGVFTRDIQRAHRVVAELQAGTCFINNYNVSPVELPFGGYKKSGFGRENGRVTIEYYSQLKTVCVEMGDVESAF
Conditions: read-out: Km toward acetaldehyde.

In data set [4] the target is T4, human ALDH3 (aldehyde dehydrogenase) (Homo sapiens, UniProt P30838).
T4 construct: at least five ALDHs that have been purified and characterized from human liver or stomach; host or cells: purified from human liver or stomach (Yin et al. 1993)
T4 sequence (P30838 1-453): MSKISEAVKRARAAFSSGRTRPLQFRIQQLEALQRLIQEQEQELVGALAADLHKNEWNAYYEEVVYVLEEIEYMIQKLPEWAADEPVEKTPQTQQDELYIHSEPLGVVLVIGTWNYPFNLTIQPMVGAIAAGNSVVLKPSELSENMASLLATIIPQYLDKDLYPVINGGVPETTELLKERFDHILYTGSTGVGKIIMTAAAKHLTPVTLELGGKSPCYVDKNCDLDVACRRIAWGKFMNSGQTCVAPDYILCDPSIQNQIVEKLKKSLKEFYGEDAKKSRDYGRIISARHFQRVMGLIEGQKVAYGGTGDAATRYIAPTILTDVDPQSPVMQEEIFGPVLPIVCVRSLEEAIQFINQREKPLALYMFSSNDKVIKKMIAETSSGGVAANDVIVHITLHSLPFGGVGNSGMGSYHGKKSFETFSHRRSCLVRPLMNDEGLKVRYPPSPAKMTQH
Conditions: read-out: Km toward acetaldehyde.

Data set [5] concerns the target T5, human ALDH4 (glutamic γ semialdehyde dehydrogenase, GSDH) (Homo sapiens, UniProt P30038).
T5 construct: at least five ALDHs that have been purified and characterized from human liver or stomach; host or cells: purified from human liver or stomach (Yin et al. 1993)
T5 sequence (P30038 25-563): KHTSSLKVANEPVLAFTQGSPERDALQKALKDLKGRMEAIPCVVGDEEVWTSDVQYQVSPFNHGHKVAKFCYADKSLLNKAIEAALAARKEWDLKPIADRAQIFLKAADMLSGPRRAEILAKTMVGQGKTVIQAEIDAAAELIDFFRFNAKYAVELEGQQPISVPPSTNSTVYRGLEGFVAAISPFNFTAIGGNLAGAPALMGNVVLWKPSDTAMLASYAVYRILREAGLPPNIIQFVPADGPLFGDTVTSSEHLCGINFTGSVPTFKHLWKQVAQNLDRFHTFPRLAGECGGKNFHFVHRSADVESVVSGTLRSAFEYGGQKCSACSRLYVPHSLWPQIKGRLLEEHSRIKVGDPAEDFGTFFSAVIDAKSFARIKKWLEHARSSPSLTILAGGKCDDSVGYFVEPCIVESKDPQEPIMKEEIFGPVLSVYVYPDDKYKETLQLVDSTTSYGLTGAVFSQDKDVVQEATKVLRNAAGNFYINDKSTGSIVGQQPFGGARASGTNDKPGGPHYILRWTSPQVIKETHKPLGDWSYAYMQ
Conditions: read-out: Km toward acetaldehyde.

Data set [6] addresses human class IV σ-ADH (stomach alcohol dehydrogenase) (Homo sapiens, UniProt P40394).

human class IV σ-ADH (stomach alcohol dehydrogenase), sequence (P40394 14-386 limits assumed): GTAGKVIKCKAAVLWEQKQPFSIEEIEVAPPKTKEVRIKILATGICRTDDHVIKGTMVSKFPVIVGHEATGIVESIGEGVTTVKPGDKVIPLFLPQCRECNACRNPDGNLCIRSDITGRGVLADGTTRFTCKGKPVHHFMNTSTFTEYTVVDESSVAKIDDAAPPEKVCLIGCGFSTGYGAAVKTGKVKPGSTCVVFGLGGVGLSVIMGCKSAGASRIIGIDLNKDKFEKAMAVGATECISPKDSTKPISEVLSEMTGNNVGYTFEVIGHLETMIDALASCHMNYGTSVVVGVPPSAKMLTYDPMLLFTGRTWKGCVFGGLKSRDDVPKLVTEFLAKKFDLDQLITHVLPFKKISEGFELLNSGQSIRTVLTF

As usually defined, the Km is the concentration of substrate that gives half-maximal velocity. For `CC=O` [acetaldehyde], the Km in data set [1] is 30 µM; in data set [2], 3 µM; in data set [3] it was 50 µM; in data set [4] it was 83000 µM; in data set [5] it was 5000 µM.
Take `CCO` [ethanol]: the “kcat for ethanol oxidation” value in data set [6] (enzyme isolated from human stomach tissue) was 16.67 to 25 s⁻¹. Also, the “kcat value for ethanol” value in data set [6] (pH 7.5) is on record as “about 1000”. In data set [6] (read-out: Km for ethanol, enzyme isolated from human stomach tissue), the Km was roughly 41000 µM.
